The values that follow come from US9023789B2, “Amylin analogs and pharmaceutical compositions thereof” (Novo Nordisk A/S, priority 2012, dated 2015).

Numbered stars: 1 amine (or outer) side, 2 acyl side, 3 side chain; on linkers, the order of the positions; unused ones are H or OH. Bridge positions count the residues as written; N and C are the ends. Side chains are listed from the residue outwards. Peptide text beside a SMILES is read from it. * marks the point of attachment. C20 diacid = O=C(O)CCCCCCCCCCCCCCCCCCC(=O)*; γGlu = O=C(O)[C@H](CCC(=O)[*:2])N[*:1]; AEEA = NCCOCCOCC(=O)O

The target of this experiment is T1, rat amylin receptor (rat calcitonin receptor + rat RAMP 3) (Rattus norvegicus, UniProt P32214+Q9JJ73).
T1 construct: expressed in transfected cells; host or cells: BHK tk'ts 13 (transient, FuGENE 6), membranes
T1 sequence (P32214 25-479 isoform P32214-2 limits assumed): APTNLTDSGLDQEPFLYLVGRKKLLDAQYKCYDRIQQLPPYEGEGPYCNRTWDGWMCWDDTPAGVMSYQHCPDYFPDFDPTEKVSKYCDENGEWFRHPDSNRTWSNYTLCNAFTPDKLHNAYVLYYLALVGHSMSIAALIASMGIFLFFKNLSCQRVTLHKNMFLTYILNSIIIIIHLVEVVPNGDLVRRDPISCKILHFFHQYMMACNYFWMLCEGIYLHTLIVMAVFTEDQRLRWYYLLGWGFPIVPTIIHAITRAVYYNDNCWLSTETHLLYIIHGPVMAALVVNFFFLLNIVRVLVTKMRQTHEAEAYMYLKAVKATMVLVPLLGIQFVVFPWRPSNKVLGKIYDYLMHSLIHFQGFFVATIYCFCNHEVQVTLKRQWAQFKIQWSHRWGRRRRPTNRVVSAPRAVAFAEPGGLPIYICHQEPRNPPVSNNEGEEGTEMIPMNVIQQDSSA
T1 sequence (Q9JJ73 23-147 partner): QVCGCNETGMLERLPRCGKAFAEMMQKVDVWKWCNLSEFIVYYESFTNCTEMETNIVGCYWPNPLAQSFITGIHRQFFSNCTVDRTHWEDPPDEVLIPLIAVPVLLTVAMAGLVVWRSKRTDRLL
Nature of the experiment: ASSAY (VI) binding to the rat amylin receptor. Conditions: for IC50: binding to rat amylin receptor, read-out: rAmylin-R bind IC50. In short, it runs like this:
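Membranes for this rat amylin receptor binding assay came from BHK tk′ts 13 cells. The cells were transiently transfected with rat calcitonin receptor using the FuGENE® 6 reagent from Roche, as the manufacturer recommends. The cells were collected approximately 48 hours after transfection, and membranes were then prepared.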

[1] abbreviates: Table 7, rat binding selectivity, rCTR IC50 / rAmylin-R IC50.
Setting [2] is: Table 7a (preferred compounds), rat binding selectivity, rCTR IC50 / rAmylin-R IC50.
Setting [3] is: ratio of rCTR bind IC50 to rAmylin-R bind IC50.

A word on the IC50: it is the concentration that inhibits the measured activity by half. Turning to `CC[C@H](C)[C@H](NC(=O)[C@H](C)NC(=O)CNC(=O)[C@H](Cc1ccccc1)NC(=O)[C@H](CC(N)=O)NC(=O)[C@@H]1CCCN1C(=O)[C@H](CO)NC(=O)[C@H](CO)NC(=O)[C@H](Cc1c[nH]cn1)NC(=O)[C@H](CCCNC(=N)N)NC(=O)[C@H](CC(C)C)NC(=O)[C@H](Cc1ccccc1)NC(=O)[C@H](CC(N)=O)NC(=O)[C@H](C)NC(=O)[C@H](CC(C)C)NC(=O)[C@H](CCCNC(=N)N)NC(=O)[C@H](CCC(N)=O)NC(=O)[C@@H](NC(=O)[C@H](C)NC(=O)[C@@H]1CSSC[C@H](NC(=O)[C@@H](N)CCCCNC(=O)COCCOCCNC(=O)CC[C@H](NC(=O)CCCCCCCCCCCCCCCCCCC(=O)O)C(=O)O)C(=O)N[C@@H](CC(N)=O)C(=O)N[C@@H]([C@@H](C)O)C(=O)N[C@@H](C)C(=O)N[C@@H]([C@@H](C)O)C(=O)N1)[C@@H](C)O)C(=O)N1CCC[C@H]1C(=O)N[C@@H](CO)C(=O)N[C@@H](CO)C(=O)N[C@H](C(=O)N[C@@H](CC(N)=O)C(=O)N[C@H](C(=O)NCC(=O)N[C@@H](CO)C(=O)N[C@@H](CCCNC(=N)N)C(=O)N[C@H](C(=O)N[C@@H](Cc1ccc(O)cc1)C(N)=O)[C@@H](C)O)C(C)C)[C@@H](C)O` [Example 38], where the note is “Table 7”, the IC50 worked out at 0.383 nM.

Regarding `CC[C@H](C)[C@H](NC(=O)[C@H](C)NC(=O)CNC(=O)[C@H](Cc1ccccc1)NC(=O)[C@H](CC(N)=O)NC(=O)[C@@H]1CCCN1C(=O)[C@H](CO)NC(=O)[C@H](CO)NC(=O)[C@H](Cc1c[nH]cn1)NC(=O)[C@H](CCCNC(=N)N)NC(=O)[C@H](CC(C)C)NC(=O)[C@H](Cc1ccccc1)NC(=O)[C@H](CCC(=O)O)NC(=O)[C@H](C)NC(=O)[C@H](CC(C)C)NC(=O)[C@H](CCCNC(=N)N)NC(=O)[C@H](CCC(N)=O)NC(=O)[C@@H](NC(=O)[C@H](C)NC(=O)[C@@H]1CSSC[C@H](NC(=O)[C@@H](N)CCCCNC(=O)CC[C@H](NC(=O)CC[C@H](NC(=O)CCCCCCCCCCCCCCCCCCC(=O)O)C(=O)O)C(=O)O)C(=O)N[C@@H](CC(N)=O)C(=O)N[C@@H]([C@@H](C)O)C(=O)N[C@@H](C)C(=O)N[C@@H]([C@@H](C)O)C(=O)N1)[C@@H](C)O)C(=O)N1CCC[C@H]1C(=O)N[C@@H](CO)C(=O)N[C@@H](CO)C(=O)N[C@H](C(=O)N[C@@H](CC(N)=O)C(=O)N[C@H](C(=O)NCC(=O)N1CCC[C@H]1C(=O)N[C@@H](CC(N)=O)C(=O)N[C@H](C(=O)N[C@@H](Cc1ccccc1)C(N)=O)[C@@H](C)O)C(C)C)[C@@H](C)O` [Example 127] (H-K([γGlu-γGlu-C20 diacid])CNTATCATQRLAEFLRHSSPNFGAIPSSTNVGPNTF-NH2; disulfide 2-7 (inferred)), the IC50 (Table 7) came to 0.205 nM. Besides, the “Ratio rCT/rAmylin binding” value by setting is: under setting [1], 114.0; under setting [2], 114.0; under setting [3], 114.0.

`CC[C@H](C)[C@H](NC(=O)[C@H](C)NC(=O)CNC(=O)[C@H](Cc1ccccc1)NC(=O)[C@H](CC(N)=O)NC(=O)[C@@H]1CCCN1C(=O)[C@H](CO)NC(=O)[C@H](CO)NC(=O)[C@H](Cc1c[nH]cn1)NC(=O)[C@H](CCCNC(=N)N)NC(=O)[C@H](CC(C)C)NC(=O)[C@H](Cc1ccccc1)NC(=O)[C@H](Cc1c[nH]cn1)NC(=O)[C@H](C)NC(=O)[C@H](CC(C)C)NC(=O)[C@H](CCCNC(=N)N)NC(=O)[C@H](CCC(N)=O)NC(=O)[C@@H](NC(=O)[C@H](C)NC(=O)[C@@H]1CSSC[C@H](NC(=O)[C@@H](N)CCCCNC(=O)COCCOCCNC(=O)CC[C@H](NC(=O)CCCCCCCCCCCCCCCCCCC(=O)O)C(=O)O)C(=O)N[C@@H](CC(N)=O)C(=O)N[C@@H]([C@@H](C)O)C(=O)N[C@@H](C)C(=O)N[C@@H]([C@@H](C)O)C(=O)N1)[C@@H](C)O)C(=O)N1CCC[C@H]1C(=O)N[C@@H](CO)C(=O)N[C@@H](CO)C(=O)N[C@H](C(=O)N[C@@H](CC(N)=O)C(=O)N[C@H](C(=O)NCC(=O)N1CCC[C@H]1C(=O)N[C@@H](CC(N)=O)C(=O)N[C@H](C(=O)N[C@@H](Cc1ccc(O)cc1)C(N)=O)[C@@H](C)O)C(C)C)[C@@H](C)O` [Example 68] (H-K([AEEA-γGlu-C20 diacid])CNTATCATQRLAHFLRHSSPNFGAIPSSTNVGPNTY-NH2; disulfide 2-7): under “Table 7”, the IC50 was determined as 0.234 nM. Moreover, the “Ratio rCT/rAmylin binding” value reads like this: under setting [1], 121.9; under setting [2], 121.9; under setting [3], 121.9.

`CC[C@H](C)[C@H](NC(=O)[C@H](C)NC(=O)CNC(=O)[C@H](Cc1ccccc1)NC(=O)[C@H](CC(N)=O)NC(=O)[C@@H]1CCCN1C(=O)[C@H](CO)NC(=O)[C@H](CO)NC(=O)[C@H](Cc1c[nH]cn1)NC(=O)[C@H](CCCNC(=N)N)NC(=O)[C@H](CC(C)C)NC(=O)[C@H](Cc1ccccc1)NC(=O)[C@H](CC(=O)O)NC(=O)[C@H](C)NC(=O)[C@H](CC(C)C)NC(=O)[C@H](CCCNC(=N)N)NC(=O)[C@H](CCC(N)=O)NC(=O)[C@@H](NC(=O)[C@H](C)NC(=O)[C@@H]1CSSC[C@H](NC(=O)[C@@H](N)CCCCNC(=O)CC[C@H](NC(=O)CC[C@H](NC(=O)CCCCCCCCCCCCCCCCCCC(=O)O)C(=O)O)C(=O)O)C(=O)N[C@@H](CC(N)=O)C(=O)N[C@@H]([C@@H](C)O)C(=O)N[C@@H](C)C(=O)N[C@@H]([C@@H](C)O)C(=O)N1)[C@@H](C)O)C(=O)N1CCC[C@H]1C(=O)N[C@@H](CO)C(=O)N[C@@H](CO)C(=O)N[C@H](C(=O)N[C@@H](CC(N)=O)C(=O)N[C@H](C(=O)NCC(=O)N1CCC[C@H]1C(=O)N[C@@H](CCC(=O)O)C(=O)N[C@H](C(=O)N[C@@H](Cc1ccc(O)cc1)C(N)=O)[C@@H](C)O)C(C)C)[C@@H](C)O` [Example 122] (H-K([γGlu-γGlu-C20 diacid])CNTATCATQRLADFLRHSSPNFGAIPSSTNVGPETY-NH2; disulfide 2-7 (inferred); N-terminus assumed): for the setting “Table 7”, the IC50 is 0.324 nM. Further, the “Ratio rCT/rAmylin binding” value is, setting by setting: under setting [1], 98.5; under setting [2], 98.5; under setting [3], 98.5.

Take `CC[C@H](C)[C@H](NC(=O)[C@H](C)NC(=O)CNC(=O)[C@H](Cc1ccccc1)NC(=O)[C@H](CC(N)=O)NC(=O)[C@@H]1CCCN1C(=O)[C@H](CO)NC(=O)[C@H](CO)NC(=O)[C@H](Cc1c[nH]cn1)NC(=O)[C@H](CCCNC(=N)N)NC(=O)[C@H](CC(C)C)NC(=O)[C@H](Cc1ccccc1)NC(=O)[C@H](Cc1c[nH]cn1)NC(=O)[C@H](C)NC(=O)[C@H](CC(C)C)NC(=O)[C@H](CCCNC(=N)N)NC(=O)[C@H](CCC(N)=O)NC(=O)[C@@H](NC(=O)[C@H](C)NC(=O)[C@@H]1CSSC[C@H](NC(=O)[C@H](CCCCN)NC(=O)CC[C@H](NC(=O)CCCCCCCCCCCCCCCCCCC(=O)O)C(=O)O)C(=O)N[C@@H](CC(N)=O)C(=O)N[C@@H]([C@@H](C)O)C(=O)N[C@@H](C)C(=O)N[C@@H]([C@@H](C)O)C(=O)N1)[C@@H](C)O)C(=O)N1CCC[C@H]1C(=O)N[C@@H](CO)C(=O)N[C@@H](CO)C(=O)N[C@H](C(=O)N[C@@H](CC(N)=O)C(=O)N[C@H](C(=O)NCC(=O)N[C@@H](CO)C(=O)N[C@@H](CCC(=O)O)C(=O)N[C@H](C(=O)N[C@@H](Cc1ccc(O)cc1)C(N)=O)[C@@H](C)O)C(C)C)[C@@H](C)O` [Example 30] ({C20 diacid-γGlu}-KCNTATCATQRLAHFLRHSSPNFGAIPSSTNVGSETY-NH2; disulfide 2-7): the IC50 (Table 7) was determined as 3.14 nM. The “Ratio rCT/rAmylin binding” value is on record as 36.1 under setting [1], 36.1 under setting [2] and 36.1 under setting [3].
